From patent US20230002446A1, “ANTI-INFLAMMATORY AGENTS” (The University of Sydney, priority 2019, published 2023)
Where a SMILES comes first, the peptide text is derived from it. [ ]: non-standard residue; d: D form. AEEA = NCCOCCOCC(=O)O

Columns and labels:
[1] = system: murine bone marrow derived macrophages; assay: LPS-stimulated bone marrow derived macrophages, cytokine ELISA; format: cell-based; details: after LPS-stimulation
Experimental: FIG. 5—Peptide administration reduces the activation of pro-inflammatory DCs and macrophages. (A) C57BL/6 murine splenocytes were stimulated with LPS±peptide RP23 (SEQ ID NO:12) and expression of activation markers on DCs was assessed by flow cytometry. (B) Bone marrow derived murine macrophages were incubated with peptide RP23 (30 mins) and stimulated with LPS (overnight). Positive controls were stimulated with LPS only. Negative controls were unstimulated. Inflammatory cytokine production was assessed by ELISA. (C) CD14+ cells were isolated from human blood and differentiated into macrophages by culturing with human serum. Cells were incubated with peptide RP23 (30 mins), then stimulated overnight with LPS (left panel) or imiquimod (right panel). Inflammatory cytokine (IL-6 or IL-12/23) production was assessed by ELISA. Representative of 6 donors. Data are presented as mean±S.E.M. Statistical significance was determined by ANOVA with Dunnett's multiple comparison test, *p<0.05, **p<0.01, ***p<0.001.
(§1) Using an in vitro culture system, it was determined whether RP23 could suppress the activity of specific pro-inflammatory immune cells. […] The culture of murine bone marrow derived macrophages with RP23 led to reduced IL-6, MCP-1 and TNF release after LPS-stimulation (FIG. 5b). Similarly, primary human blood derived macrophages had reduced IL-6 and IL-12/23 release after stimulation with either LPS or imiquimod (FIG. 5c).

[2] = system: human macrophages/monocytes; format: cell-based
Experimental: (§2) FIG. 6—Peptide administration is not cytostatic or cytotoxic to murine and human macrophages/monocytes. Cytostatic/cytotoxic effect of peptide RP23 (SEQ ID NO:12) was assessed after overnight incubation (A) by WST-1 assay in RAW and THP-1 cell lines (data are the means of 2 replicates) (B) by LDH assay in primary murine BMDMs or human MDMs (data are mean±S.E.M).

[3] = system: murine macrophages/monocytes; format: cell-based
Experimental: as §2

dermal dendritic cells = assay: intradermal injection into healthy human skin explants, myeloid cell activation; format: cell-based; details: intra-dermal injection, overnight culture
Experimental: FIG. 7—Peptide administration reduces spontaneous myeloid cell activation in human skin. (A) Peptide RP23 (SEQ ID NO: 12) was injected intradermally into healthy human skin grafts. Myeloid cell activation was assessed after overnight culture. (B) The effect of peptide RP23 on the spontaneous upregulation of activation markers on myeloid cell subsets in the skin. Data are representative of 6 donors.
as §1

C57BL/6 mice [4] = assay: T-cell subsets by flow cytometry in imiquimod-induced psoriasis model; format: in vivo
Experimental: FIG. 11. RP23 treatment reduces TCRαβ^+ T-cells in the back skin and increases CD4^+ T-regulatory cells in the lymph nodes of mice in an imiquimod-induced psoriasis model. C57BL/6 female mice received PBS or RP23 injection at day −1, then Aldara cream (5% imiquimod, 57.5 mgs) was applied daily (days 0-4) to the backs to induce psoriasis. At day 15, skin and inguinal lymph nodes were analysed by flow cytometry to quantitate (A) T-cell subsets as a proportion of total leukocytes (CD45^+) in the psoriatic back skin, (B) number of CD3^+CD4^+ TCRαβ T-cells in the skin draining lymph nodes (inguinal), with transcription factor staining, to identify cells with a regulatory phenotype (FoxP3^+). Data are the means+/−SEM (n=4-5). Statistical significance was determined by multiple t-tests, *p<0.05.
C57BL/6 female mice received PBS or RP23 injection at day −1, then Aldara cream (5% imiquimod, 57.5 mgs) was applied daily (days 0-4) to the backs of mice to induce psoriasis. At day 15, skin and inguinal lymph nodes were analysed by flow cytometry to quantitate T-cell subsets as a proportion of total leukocytes (CD45+) in the psoriatic back skin, (FIG. 11A).
CD3+CD4+ TCRαβ T-cells in the skin draining lymph nodes (inguinal) were phenotyped by transcription factor staining and flow cytometry to identify cells with a regulatory phenotype (i.e., FoxP3+).

C57BL/6 mice [5] = assay: oxazolone murine model of atopic dermatitis; format: in vivo; details: injection at day -1, or both day -7 and day -1; compared to PBS
Description: (§3) FIG. 13. RP23 treatment reduces inflammation in a murine model of atopic dermatitis. Ears and shaved backs of C57BL/6 female mice were sensitised (day 0) and challenged (day 7, 10, 14, 17, 19, 21, 23, 25 and 27) with topical application of the irritant oxazolone or vehicle only. Injection of mice with RP23 at day −1, or both day −7 and day −1, is compared to injection with PBS only (day −7 and day −1) or topical application of steroid (0.01% betamethasone dipropionate, 30 mgs) applied on the back at the time of every oxazolone application. Ear thickness was measured with manual callipers. Data are the means+/−SEM (n=5).
as §3, with “Ears” for “FIG. 13. RP23 treatment reduces inflammation in a murine model of atopic dermatitis. Ears”, “−1, was” for “−1, is”, “callipers.” for “callipers. Data are the means+/−SEM (n=5).”

CD11c+ dendritic cells = assay: MHCII on CD11c+ dendritic cells after intra-nasal instillation; format: in vivo, mice
Experimental: FIG. 15. Mucosal delivery of RP23 to the lungs decreases activation of antigen presenting cells in the lungs and bronchoalveolar space. (A) C57BL/6 mice (n=5) received either PBS or RP23 by intra-nasal instillation or (B) C57BL/6 mice (n=4) received either PBS, scramble RP23 peptide, or RP23 by intra-nasal instillation, then 24 hours later, Pam2Cys-SK4-PEG(OH) intra-nasally to induce an inflammatory state. 24 hours later, cells from the bronchoalveolar lavage and perfused lungs were collected. The median fluorescence intensity of MHCII on CD11c^+ dendritic cells was determined by flow cytometry. Data are the means+/−SEM. Statistical significance was determined by (A) t-test, ***p<0.001 and (B) ANOVA with Dunnett's multiple comparison test to PBS control, *p<0.05.
Naïve C57BL/6 mice (n=5) received either PBS or RP23 by intra-nasal instillation, then 24 hours later, cells from the bronchoalveolar lavage and perfused lungs were collected. The median fluorescence intensity of MHCII on CD11c+ dendritic cells was determined by flow cytometry. […] To determine if this effect would be maintained once potent lung inflammation was induced, C57BL/6 mice (n=4) received either PBS, scramble RP23 peptide, or RP23 by intra-nasal instillation, then 24 hours later, Pam2Cys-SK4-PEG(OH) was given intra-nasally to induce an inflammatory state.

[6] = Pam2Cys-SK4-PEG(OH) intra-nasally 24 hours after peptide

CSCC[C@H](NC(=O)COCCOCCNC(=O)[C@H](CCCCN)NC(=O)[C@H](CCCCN)NC(=O)[C@H](CCCCN)NC(=O)[C@@H](N)CCCCN)C(=O)N[C@H](C(=O)N1CCC[C@H]1C(=O)NCC(=O)N[C@H](C(=O)N[C@@H](CCC(N)=O)C(=O)N[C@@H](CO)C(=O)N1CCC[C@H]1C(=O)N[C@@H](Cc1ccccc1)C(=O)N[C@@H](Cc1ccccc1)C(=O)N[C@@H](CC(C)C)C(=O)N[C@@H](CC(C)C)C(=O)N[C@@H](CC(C)C)C(=O)N[C@@H](CC(C)C)C(=O)N[C@@H](CC(C)C)C(=O)N[C@H](C(=O)N[C@H](C(=O)N[C@@H](CC(C)C)C(=O)N[C@H](C(=O)N[C@H](C(=O)N[C@H](C(=O)O)C(C)C)C(C)C)[C@@H](C)O)C(C)C)[C@@H](C)O)[C@@H](C)O)[C@@H](C)O [RP23] (H-KKKK[AEEA]MTPGTQSPFFLLLLLTVLTVV-OH)
IL-6 release [1]: reduced | MCP-1 release [1]: reduced | TNF release [1]: reduced | cytostatic or cytotoxic effects [2]: without causing any cytostatic or cytotoxic effects | cytostatic or cytotoxic effects [3]: without causing any cytostatic or cytotoxic effects | spontaneous activation of dermal dendritic cells (dermal dendritic cells): reduced spontaneous activation of dermal dendritic cells | TCRαβ+ T-cells in the skin of psoriatic mice (C57BL/6 mice [4]; FIG. 11A): reduction in TCRαβ+ T-cells | number of FoxP3-expressing CD3+CD4+ TCRαβ T-cells in skin draining lymph nodes (C57BL/6 mice [4]; inguinal lymph nodes, day 15, with or without T-bet or Rorγt): significant increase | proportion of total CD4+ and CD8+ T-cells in the back skin (C57BL/6 mice [4]; injection day -1, day 15, proportion of CD45+ leukocytes): reduced the proportion of total CD4+ and CD8+ T-cells | inflammation in the ears (ear thickness) (C57BL/6 mice [5]): reduced inflammation in the ears | MHCII expression on DC in the bronchoalveolar space (CD11c+ dendritic cells; [6]): also on DC in the bronchoalveolar space | MHCII expression on lung DC (CD11c+ dendritic cells; [6]): reduced MHCII expression on lung DC | MHCII expression on DC in the lung tissue (CD11c+ dendritic cells; naive mice, 24 hours after intra-nasal instillation): substantially reduced
